Like-named read-outs stand apart in the source and are kept apart here.
Assay: PK study of Form I of Compound II in monkeys
Assay type: in vivo
Conditions: PO dose of 75 mg/kg; for concentration at 0.083 h / concentration at 0.25 h / concentration at 0.5 hr / concentration at 1 hr / concentration at 2 hr / concentration at 4 hr / concentration at 6 hr / concentration at 8 hr / concentration at 24 h: male, cynomolgus monkey, plasma, po, 75 mg/kg
Procedure: The pharmacokinetics (PK) properties of Form A of Compound I and Form I of Compound II were determined in a series of comprehensive experiments in preclinical species including Sprague-Dawley rats, beagle dogs, cynomolgus monkeys. In those studies, the Form A crystalline salt of Compound I (and Form I crystalline salt of Compound II) was formulated in saline, 0.5% MC in saline or other commonly used suitable formulation vehicles to give a clear solution or as a suspension or a paste depending on the concentration intended to reach and the choice of vehicles. Dosing was by oral gavage. Blood samples were drawn and placed into individual tube containing K2EDTA. Blood samples were put on ice and centrifuged (2000 g for 5 minutes at 4° C.) to obtain plasma within 15 minutes after collection. Plasma samples were stored at approximately −80° C. freezer until analysis. For most of these analyses, Compound I (and Compound II) and the internal standard (IS) were extracted from rat, monkey or dog plasma by protein precipitation, and the extract was evaporated, reconstituted and analyzed using HPLC with tandem mass spectrometric detection (HPLC-MS/MS), see examples for further details. Calibration was accomplished by weighted linear regression of the ratio of the peak area of analyte to that of the added internal standard (IS). For the validated assay in rat and monkey EDTA plasma, the Lower Limit of Quantitation (LLOQ) for both compound 1 and 2 was 5.00 ng/mL, and the assay was linear from 5.00-1,000 ng/mL. PK parameters were calculated by non-compartmental analysis using WinNonlin (versions 4.1 through 6.1). Non-naïve Cynomolgus monkeys, 3.2-3.5 kg, male Dosing solution was prepared by dissolving 682.96 mg of Form I of Compound II in 82.558 mL of 0.5% MC in saline, vortexing for 5 min and sonicating for 18 min to obtain a homogenous solution. The above solution was given to the animals at 10 mL/kg via intragastric administration To collect blood samples, the animals were restrained manually and approx. 0.6-1 mL blood/time point was collected from cephalic or sephanous veins into pre-cooled EDTA tubes. Blood samples were put on ice and centrifuged at 4° C. to obtain plasma within 30 minutes of sample collection. Plasma samples were stored at −70° C. until analysis. • Instrument LC-MS/MS (API4000) • MS conditions Positive ion, EST • HPLC conditions Mobile Phase A: H2O—0.025% formic acid—1 mM NH4OAc • Mobile Phase B: MeOH—0.025% formic acid—1 mM NH4OAc • Column: Boston Crest ODS-C18 (2.1×50 mm, 5 μm) • Flow rate: 0.40 mL/min • Compound II retention time: 2.30 min; • IS retention time: 2.29 min • Sample preparation An aliquot of 20 μL plasma sample was protein precipitated with […] which contains 5 ng/mL IS (P1100970-1). The mixture was vortexed for 2 min, and then centrifuged at 12000 rpm for 5 min. an aliquot of 5 μL supernatant was injected onto the LC-MS/MS system.

[1] = #0610703, read-out: plasma concentration
[2] = #0612169, read-out: plasma concentration
[3] = Mean, read-out: mean plasma concentration

CC[C@H](C)[C@H](NC(=O)OC)C(=O)N1CCC[C@H]1c1nc2ccc(-c3ccc4cc(-c5cnc([C@@H]6CCCN6C(=O)[C@@H](NC(=O)OC)[C@@H](C)OC)[nH]5)ccc4c3)cc2[nH]1 [Form I of Compound II]
plasma concentration (Cynomolgus monkeys, 0.083 hr, #0610703): BQL | concentration at 0.083 h (0.083 hr, #0612169, read-out: plasma concentration): 8.33 ng/mL | concentration at 0.083 h (0.083 hr, Mean, read-out: mean plasma concentration): 8.33 ng/mL | concentration at 0.25 h [1]: 33.3 ng/mL | concentration at 0.25 h [2]: 86.8 ng/mL | concentration at 0.25 h [3]: 60.1 ng/mL | concentration at 0.5 hr [1]: 207 ng/mL | concentration at 0.5 hr [2]: 273 ng/mL | concentration at 0.5 hr [3]: 240 ng/mL | concentration at 1 hr [1]: 497 ng/mL | concentration at 1 hr [2]: 1140 ng/mL | concentration at 1 hr [3]: 819 ng/mL | concentration at 2 hr [1]: 336 ng/mL | concentration at 2 hr [2]: 954 ng/mL | concentration at 2 hr [3]: 645 ng/mL | concentration at 4 hr [1]: 213 ng/mL | concentration at 4 hr [2]: 435 ng/mL | concentration at 4 hr [3]: 324 ng/mL | concentration at 6 hr [1]: 110 ng/mL | concentration at 6 hr [2]: 194 ng/mL | concentration at 6 hr [3]: 152 ng/mL | concentration at 8 hr [1]: 55.9 ng/mL | concentration at 8 hr [2]: 93.1 ng/mL | concentration at 8 hr [3]: 74.5 ng/mL | concentration at 24 h [1]: 8.79 ng/mL | concentration at 24 h [2]: 7.37 ng/mL | concentration at 24 h [3]: 8.08 ng/mL

— patent publication US20150203474A1, “SOLID FORMS COMPRISING INHIBITORS OF HCV NS5A, COMPOSITIONS THEREOF, AND USES THEREWITH” (PRESIDIO PHARMACEUTICALS ,INC., priority 2012, published 2015)
